# Biological target: T1, BTK (Homo sapiens, UniProt Q06187)
# T1 construct: The GM01501.3 cell line endogenously expresses BTK with a HiBiT fusion tag via CRISPR knock-in at its C-terminal region; endogenous in cells; host or cells: GM01501.3 (GM01501 cells engineered by CRISPR knock-in of HiBiT at the BTK locus)
# Assay: BTK degradation assay using the HiBiT Method (Nano-Glo HiBiT Lytic Assay, GM01501.3 cells)
# Assay type: cell-based
# Details: HiBiT Degradation on GM01501.3 BTK @ 6 hours
# How it was run: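 CRISPR knock-in GM01501.3 cells expressing endogenous BTK with C-terminal HiBiT tag, treated 6 h at 37 °C with compounds, 11-point half-log titration from 10 μM top, duplicates. Remaining BTK quantified by Nano-Glo HiBiT lytic luminescence versus DMSO controls; DC50 reported.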
# T1 sequence (Q06187 whole entry, the tested form may be a part): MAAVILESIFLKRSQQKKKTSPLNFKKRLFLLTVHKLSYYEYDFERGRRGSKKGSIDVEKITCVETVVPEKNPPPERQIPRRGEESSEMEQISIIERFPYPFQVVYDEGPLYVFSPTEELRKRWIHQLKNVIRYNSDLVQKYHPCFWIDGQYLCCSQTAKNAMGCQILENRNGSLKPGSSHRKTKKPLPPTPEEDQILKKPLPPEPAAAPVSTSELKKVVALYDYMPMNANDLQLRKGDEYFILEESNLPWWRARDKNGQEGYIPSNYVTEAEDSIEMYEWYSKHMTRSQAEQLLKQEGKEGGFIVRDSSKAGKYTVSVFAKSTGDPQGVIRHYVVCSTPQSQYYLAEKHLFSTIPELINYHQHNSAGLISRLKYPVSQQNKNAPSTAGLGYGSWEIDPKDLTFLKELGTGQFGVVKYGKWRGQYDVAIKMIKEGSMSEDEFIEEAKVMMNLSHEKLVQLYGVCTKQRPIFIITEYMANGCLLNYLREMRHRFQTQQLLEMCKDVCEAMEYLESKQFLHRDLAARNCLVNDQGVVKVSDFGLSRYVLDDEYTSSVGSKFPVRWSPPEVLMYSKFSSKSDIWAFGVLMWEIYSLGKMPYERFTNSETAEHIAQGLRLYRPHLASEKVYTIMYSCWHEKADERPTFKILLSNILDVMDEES
row,DC50,Compound
1,< 100 nM,"CC(C)(C)c1nc(C(=O)NCc2ccc(-c3ncnn4cc(-c5ccc(CN6CCOCC6Cc6ccc(OC7CCC(=O)NC7=O)cc6)cn5)cc34)cc2F)no1 (centres unmarked) [Example 238, 5-(tert-butyl)-N-(4-(6-(5-((3-(4-((2,6-dioxopiperidin-3-yl)oxy)benzyl)morpholino)methyl)pyridin-2-yl)pyrrolo [2,1-f][1,2,4]triazin-4-yl)-2-fluorobenzyl)-1,2,4-oxadiazole-3-carboxamide]"
2,< 100 nM,"CC(C)(C)c1nc(C(=O)NCc2ccc(-c3ncnn4cc(-c5ccc(CN6CCC(CCc7ccc(OC8CCC(=O)NC8=O)cc7)CC6)cn5)cc34)cc2F)no1 (centres unmarked) [Example 239, 5-(tert-butyl)-N-(4-(6-(5-((4-(4-((2,6-dioxopiperidin-3-yl)oxy)phenethyl)piperidin-1-yl)methyl)pyridin-2-yl)pyrrolo [2,1-f][1,2,4]triazin-4-yl)-2-fluorobenzyl)-1,2,4-oxadiazole-3-carboxamide]"
3,< 100 nM,"Cc1cc(-c2ncnn3cc(-c4ccc(CN5CCC(c6ccc(NC7CCC(=O)NC7=O)cc6)C(F)(F)C5)cc4)cc23)ccc1CNC(=O)c1noc(C(C)(C)C)n1 (centres unmarked) [Example 240, 5-(tert-butyl)-N-(4-(6-(4-((4-(4-((2,6-dioxopiperidin-3-yl)amino)phenyl)-3,3-difluoropiperidin-1-yl)methyl)phenyl)pyrrolo[2,1-f] [1,2,4]triazin-4-yl)-2-methylbenzyl)-1,2,4-oxadiazole-3-carboxamide]"
4,< 100 nM,"Cc1cc(-c2ncnn3cc(-c4ccc(CN5CCC(c6ccc(NC7CCC(=O)NC7=O)cc6)CC5)cn4)cc23)ccc1CNC(=O)c1noc(C(C)(C)C)n1 (centres unmarked) [Example 241, 5-(tert-butyl)-N-(4-(6-(5-((4-(4-((2,6-dioxopiperidin-3-yl)amino)phenyl)piperidin-1-yl)methyl)pyridin-2-yl)pyrrolo[2,1-f][1,2,4]triazin-4-yl)-2-methylbenzyl)-1,2,4-oxadiazole-3-carboxamide]"
5,< 100 nM,"Cn1nc(N2CCC(=O)NC2=O)c2ccc(C3CCN(Cc4ccc(-c5cc6c(-c7ccc(CNC(=O)c8noc(C(C)(C)C)n8)c(F)c7)ncnn6c5)c(F)c4)CC3)cc21 [Example 242, 5-(tert-butyl)-N-(4-(6-(4-((4-(3-(2,4-dioxotetrahydropyrimidin-1(2H)-yl)-1-methyl-1H-indazol-6-yl)piperidin-1-yl)methyl)-2-fluorophenyl)pyrrolo[2,1-f][1,2,4]triazin-4-yl)-2-fluorobenzyl)-1,2,4-oxadiazole-3-carboxamide]"
6,< 100 nM,"Cn1nc(N2CCC(=O)NC2=O)c2ccc(C3CCN(Cc4ccc(-c5cc6c(-c7ccc(CNC(=O)c8noc(C(C)(C)C)n8)c(F)c7)ncnn6c5)nc4)CC3)cc21 [Example 243, 5-(tert-butyl)-N-(4-(6-(5-((4-(3-(2,4-dioxotetrahydropyrimidin-1(2H)-yl)-1-methyl-1H-indazol-6-yl)piperidin-1-yl)methyl)pyridin-2-yl)pyrrolo[2,1-f] [1,2,4]triazin-4-yl)-2-fluorobenzyl)-1,2,4-oxadiazole-3-carboxamide]"
7,< 100 nM,"Cn1nc(N2CCC(=O)NC2=O)c2ccc(C3CCN(Cc4ccc(-c5cc6c(-c7ccc(CNC(=O)c8noc(C(C)(C)C)n8)c(F)c7)ncnn6c5)cn4)CC3)cc21 [Example 244, 5-(tert-butyl)-N-(4-(6-(6-((4-(3-(2,4-dioxotetrahydropyrimidin-1(2H)-yl)-1-methyl-1H-indazol-6-yl)piperidin-1-yl)methyl)pyridin-3-yl)pyrrolo[2,1-f][1,2,4]triazin-4-yl)-2-fluorobenzyl)-1,2,4-oxadiazole-3-carboxamide]"
8,< 100 nM,"Cc1cc(-c2ncnn3cc(-c4ccc(CN5CCC(c6ccc7c(N8CCC(=O)NC8=O)nn(C)c7c6)CC5)c(F)c4)cc23)ccc1CNC(=O)c1noc(C(C)(C)C)n1 [Example 245, 5-(tert-butyl)-N-(4-(6-(4-((4-(3-(2,4-dioxotetrahydropyrimidin-1(^2H)-yl)-1-methyl-1H-indazol-6-yl)piperidin-1-yl)methyl)-3-fluorophenyl)pyrrolo[2,1-f][1,2,4]triazin-4-yl)-2-methylbenzyl)-1,2,4-oxadiazole-3-carboxamide]"

# Reference: US20240287076A1, “COMPOUNDS FOR TARGETING DEGRADATION OF BRUTON'S TYROSINE KINASE” (BIOGEN MA INC., priority 2021, published 2024)
